Two compounds from patent US4273771A, “Novel Δ^4,9 -gonadiene-21-ol-3,20-diones” (Roussel Uclaf, priority 1978, dated 1981) can be followed below.

The target of experiment [1] is T1, specific progesterone receptors (uterine cytosol) (Oryctolagus cuniculus, UniProt P06186).
T1 construct: the uterus was removed and homogenized in a buffered solution; from tissue; host or cells: uterus cytosol (105,000 g supernatant) of immature estradiol-treated rabbits
T1 sequence (P06186 1-930): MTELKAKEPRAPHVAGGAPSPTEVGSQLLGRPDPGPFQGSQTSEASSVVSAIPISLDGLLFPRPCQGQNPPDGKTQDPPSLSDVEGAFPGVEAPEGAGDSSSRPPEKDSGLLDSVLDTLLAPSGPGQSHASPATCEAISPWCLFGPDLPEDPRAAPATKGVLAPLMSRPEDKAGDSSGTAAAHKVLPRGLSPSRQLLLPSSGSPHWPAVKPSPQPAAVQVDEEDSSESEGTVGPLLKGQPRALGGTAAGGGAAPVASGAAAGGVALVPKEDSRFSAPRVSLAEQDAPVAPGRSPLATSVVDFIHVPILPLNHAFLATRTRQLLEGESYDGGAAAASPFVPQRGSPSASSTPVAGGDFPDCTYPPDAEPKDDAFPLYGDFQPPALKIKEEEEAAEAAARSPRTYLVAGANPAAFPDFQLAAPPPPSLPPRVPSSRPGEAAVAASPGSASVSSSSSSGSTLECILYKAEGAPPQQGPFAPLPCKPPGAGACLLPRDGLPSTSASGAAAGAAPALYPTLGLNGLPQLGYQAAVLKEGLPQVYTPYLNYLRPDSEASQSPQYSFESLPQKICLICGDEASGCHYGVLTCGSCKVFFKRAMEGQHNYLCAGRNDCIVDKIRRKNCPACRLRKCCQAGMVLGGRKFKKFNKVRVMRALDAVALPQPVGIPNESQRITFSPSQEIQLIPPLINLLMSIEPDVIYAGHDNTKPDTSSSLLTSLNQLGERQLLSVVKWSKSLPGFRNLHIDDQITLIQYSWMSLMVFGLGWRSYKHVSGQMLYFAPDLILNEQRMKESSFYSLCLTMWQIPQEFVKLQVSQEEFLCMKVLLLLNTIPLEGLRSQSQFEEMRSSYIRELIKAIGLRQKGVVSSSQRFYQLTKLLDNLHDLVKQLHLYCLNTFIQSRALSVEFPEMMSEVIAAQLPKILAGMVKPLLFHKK
Description: hormonal receptor method: displacement of tritiated Product R in rabbit uterine cytosol. The class given is binding. The conditions noted are these: for ARL (relative affinity of the test product): progesterone = 100. How it is done: The progestomimetic activity was determined for the product A of Example 1 by the hormonal receptor method of Raynaud et al [J. Ster. Biochem., Vol. 6 (1975), p. 615-622 and Physiology and Genetics of Reproduction, 1975, Part A, p. 143-160]. Immature rabbits received 25 μg of estradiol percutaneously and were sacrificed after 5 days and the uterus was removed and homogenized in a buffered solution of 10 mM of tromethamine, 0.25 M of saccharose and a pH of 7.4 was kept with hydrochloric acid. The homogenate was centrifuged at 105,000 g per hour and the surnageant or cytosol was adjusted to a solution of 1/50 (weight/volume). […] The radioactivity of the tritiated product R was determined after 2 hours and after 24 hours by the technique of adsorption on carbondextran (1.25%-0.625%). The plots were the curves of the right parallel of the axis of abscisses of ordinate [formula] wherein Bo is the maximum amount of tied tritiated product R measured in the incubation containing only tritiated product R and Bmin is the minimum amount of tied tritiated product R (non-specific) measured in the incubation containing tritiated product R and a large excess of cold product R (2500×10^-9 M) and the curves representing the percentages of tied tritiated product R B/Bo as a logarithmatic function of the concentrations of added cold product R.
The intersections of these I50 straight lines and the curves permit the determination of the values: CP--concentration of cold progesterone which inhibits by 50% the fixation of the tritiated product R and CX--concentration of test product which inhibits by 50% the fixation of tritiated product R. The relative affinity of the test product (ARL) was determined by the formula [formula] and the results are reported in Table I

The test system of experiment [2] is immature rabbits sensitized with estradiol. The experiment is described as follows: Clauberg test: proliferation of endometric lace. It is filed as in vivo, rabbit. The conditions noted are these: for MacPhail units: subcutaneous, 5 days. On the procedure: The progestomimetic activity was also determined by the Clauberg test in which groups of 3 immature rabbits were previously sensitized by subcutaneous administration of estradiol for 5 days at a daily dose of 5 μg. Two days after the last treatment, the compound A of Example 1 in solution in sesame oil containing 5% of benzyl alcohol was subcutaneously administered daily for 5 days and the rabbits were killed on the 6th day. The uterus was removed and the proliferation of endometric lace which is characteristic of progestomimetic activity was determined in MacPhail units.

A further experiment concerns immature female mice. The experiment is described as follows: antiestrogenic activity, uterus weight (method of Rubin and Dorfman et al). It is filed as in vivo. On the procedure:
The estrogenic activity of the product A of Example 1 was also determined by the method of Rubin [Endocrinology, Vol. 49 (1951), p. 429] and Dorfman et al [Methods in Hormone Research, Vol. II (1962), p. 118] in which groups of 4 immature female mice 18 days old received once a day for 3 days a subcutaneous injection of estradiol only, only the test product or estradiol and the test product. In the last case, separate injections were used. The animals were killed on the 4th day and the uterus was removed, dissected and weighed. The test product was administered in a volume of 0.1 ml of sesame oil solution containing 5% of benzyl alcohol at a total dose of 0.27 μg of estradiol and the test compound was used at total doses of 0.3, 1.0, 3 and 10 μg.

The mark [3] stands for this setting: total dose 0.3 μg + estradiol 0.27 μg.
Setting [4] is: total dose 1 μg + estradiol 0.27 μg.
Where [5] appears, read: total dose 3 μg + estradiol 0.27 μg.
[6] abbreviates: total dose 10 μg + estradiol 0.27 μg.

Structures are written as SMILES.

Regarding `CC(O)C(=O)C1(C)CCC2C3CCC4=CC(=O)CCC4=C3CCC21C` (single isomer, unassigned) [Product A of Example 1, 17α-methyl-17β-(2-hydroxy-1-oxopropyl)-Δ^4,9-estradiene-3-one], the “ARL (relative affinity of the test product)” value in experiment [1] (2 h incubation at 0° C.) came out at 204; in experiment [1] (24 h incubation at 0° C.), 688. In experiment [1] (result in words), the “affinity for specific uterine reception of progesterone compared with progesterone” value is on record as “much greater affinity”. Also, the values for the MacPhail units in experiment [2] (1 μg daily), in experiment [2] (3 μg daily) and in experiment [2] (10 μg daily) were 2.2 MacPhail units, 3.4 MacPhail units and 3.4 MacPhail units, respectively. Also, the progestomimetic activity result in experiment [2] (result in words) is “very strong progestomimetic activity”. Also, in the experiment on immature female mice (dose of 1 μg, result in words), the “antiestrogenic activity against estradiol” value is given as “clear antiestrogenic activity”. In addition, the “Average Weight of uterus” value is 14.6 mg with immature female mice (test product only, total dose 0.3 μg); 13.0 mg in the experiment with immature female mice (test product only, total dose 1 μg); 17.1 mg with immature female mice (test product only, total dose 3 μg); 15.8 mg with immature female mice (test product only, total dose 10 μg); 80.5 mg in the experiment with immature female mice (setting [3]); 59.6 mg in the experiment on immature female mice (setting [4]). In addition, the “Average Weight of uterus” value with immature female mice (setting [5]) is recorded as 38.5 mg; in the experiment on immature female mice (setting [6]) it was 39.6 mg. Further, the “change of average uterus weight versus estradiol only” value with immature female mice (setting [3]) is given as -19%; in the experiment with immature female mice (setting [4]), -39%; in the experiment with immature female mice (setting [5]), -61%; in the experiment with immature female mice (setting [6]) it was -60%.

As for `C[C@]12CC[C@@H]3c4ccc(O)cc4CC[C@H]3[C@@H]1CC[C@@H]2O` [Estradiol, reference compound], the “Average Weight of uterus” value with immature female mice (estradiol only, total dose 0.27 μg, subcutaneous, 3 days) stood at 99.3 mg.
